# Test results published in ChEMBL document CHEMBL3044832, “Synthesis and Insecticidal Activity of N-(Tolyloxybenzyl)-pyrazolecarboxamide Derivatives” (J Pestic Sci, 1999).
# What was measured:
# Myzus persicae [1] = assay: Insecticidal activity against Myzus persicae (green peach aphid) assessed as insect mortality at 0.78 ppm; assay type: functional
# Myzus persicae [2] = assay: Insecticidal activity against Myzus persicae (green peach aphid) assessed as insect mortality at 3.13 ppm; assay type: functional
# Myzus persicae [3] = assay: Insecticidal activity against Myzus persicae (green peach aphid) assessed as insect mortality at 12.5 ppm; assay type: functional
# Myzus persicae [4] = assay: Insecticidal activity against Myzus persicae (green peach aphid) assessed as insect mortality at 50 ppm; assay type: functional
# [5] = Acute toxicity in Mus musculus (mouse); assay type: organism-based; settings: in vivo
# Plutella xylostella [6] = assay: Insecticidal activity against Plutella xylostella (diamondback moth) assessed as insect mortality at 12.5 ppm; assay type: functional
# Plutella xylostella [7] = assay: Insecticidal activity against Plutella xylostella (diamondback moth) assessed as insect mortality at 50 ppm; assay type: functional
# Plutella xylostella [8] = assay: Insecticidal activity against Plutella xylostella (diamondback moth) assessed as insect mortality at 0.78 ppm; assay type: functional
# Plutella xylostella [9] = assay: Insecticidal activity against Plutella xylostella (diamondback moth) assessed as insect mortality at 3.13 ppm; assay type: functional
Structure (SMILES),mortality at 0.78 ppm (Myzus persicae [1]),mortality at 3.13 ppm (Myzus persicae [2]),mortality at 12.5 ppm (Myzus persicae [3]),mortality at 50 ppm (Myzus persicae [4]),LD50 [5],mortality at 12.5 ppm (Plutella xylostella [6]),mortality at 50 ppm (Plutella xylostella [7]),mortality at 0.78 ppm (Plutella xylostella [8]),mortality at 3.13 ppm (Plutella xylostella [9])
CCc1nn(C)c(C(=O)NCc2ccc(Oc3ccccc3C)cc2)c1Cl,0%,0%,100%,100%,–,–,–,–,–
CC1CCc2c1nn(C)c2C(=O)NCc1ccc(Oc2ccc(C(F)(F)F)cc2)cc1 (configuration not stated),–,–,–,–,< 30 mg/kg,–,–,–,–
Cc1ccc(Oc2ccc(CNC(=O)c3c(Cl)c(C)nn3C)cc2)cc1,0%,0%,100%,100%,–,–,–,–,–
CCCc1nn(C)c(C(=O)NCc2ccc(Oc3ccc(C)cc3)cc2)c1Cl,0%,0%,0%,80%,–,–,–,–,–
Cc1ccc(Oc2ccc(CNC(=O)c3c(Cl)c(C(C)C)nn3C)cc2)cc1,0%,0%,30%,100%,–,–,–,–,–
Cc1ccc(Oc2ccc(CNC(=O)c3c(Cl)c(C(C)(C)C)nn3C)cc2)cc1,0%,0%,0%,30%,–,–,–,–,–
Cc1ccc(Oc2ccc(CNC(=O)c3c(Cl)c(C(F)(F)F)nn3C)cc2)cc1,0%,0%,0%,0%,–,–,–,–,–
CCc1cc(C(=O)NCc2ccc(Oc3ccc(C)cc3)cc2)n(C)n1,0%,0%,0%,30%,–,–,–,–,–
CCc1nn(C)c(C(=O)NCc2ccc(Oc3ccc(C)cc3)cc2)c1Br,0%,0%,30%,80%,–,–,–,–,–
CCc1nn(C)c(C(=O)NCc2ccc(Oc3ccc(C)cc3)cc2)c1OC,0%,100%,100%,100%,–,–,–,–,–
Cc1ccc(Oc2ccc(CNC(=O)c3c4c(nn3C)CCC4)cc2)cc1,0%,0%,30%,100%,–,–,–,–,–
Cc1ccc(Oc2ccc(CNC(=O)c3c4c(nn3C)C(C)CC4)cc2)cc1 (configuration not stated),0%,0%,80%,100%,–,–,–,–,–
CCC1CCc2c1nn(C)c2C(=O)NCc1ccc(Oc2ccc(C)cc2)cc1 (configuration not stated),0%,0%,30%,80%,–,–,–,–,–
Cc1ccc(Oc2ccc(CNC(=O)c3c4ccccc4nn3C)cc2)cc1,0%,0%,0%,0%,–,–,–,–,–
CCc1nn(C)c(C(=O)NCc2ccc(Sc3ccc(C)cc3)cc2)c1Cl,30%,0%,100%,100%,–,30%,30%,0%,0%
CCc1nn(C)c(C(=O)NCc2ccc(Cc3ccc(C)cc3)cc2)c1Cl,0%,0%,0%,0%,–,0%,80%,0%,0%
CCc1nn(C)c(C(=O)NCc2ccc(C(=O)c3ccc(C)cc3)cc2)c1Cl,30%,0%,100%,100%,–,100%,100%,0%,0%
CCc1nn(C)c(C(=O)NCc2ccc(COc3ccc(C)cc3)cc2)c1Cl,0%,0%,0%,0%,–,0%,0%,0%,0%
CCc1nn(C)c(C(=O)NCc2ccccc2Oc2ccccc2C)c1Cl,0%,0%,0%,0%,–,–,–,–,–
CCc1nn(C)c(C(=O)NCc2ccccc2Oc2cccc(C)c2)c1Cl,0%,0%,0%,0%,–,–,–,–,–
CCc1nn(C)c(C(=O)NCc2ccccc2Oc2ccc(C)cc2)c1Cl,0%,0%,0%,0%,–,–,–,–,–
CCc1nn(C)c(C(=O)NCc2cccc(Oc3ccccc3C)c2)c1Cl,0%,0%,30%,30%,–,–,–,–,–
CCc1nn(C)c(C(=O)NCc2cccc(Oc3cccc(C)c3)c2)c1Cl,0%,0%,30%,80%,–,–,–,–,–
CCc1nn(C)c(C(=O)NCc2cccc(Oc3ccc(C)cc3)c2)c1Cl,0%,30%,80%,80%,–,–,–,–,–
CCc1nn(C)c(C(=O)NCc2ccc(Oc3cccc(C)c3)cc2)c1Cl,0%,80%,100%,100%,–,–,–,–,–
CCc1nn(C)c(C(=O)NCc2ccc(Oc3ccc(C)cc3)cc2)c1Cl [TOLFENPYRAD],30%,100%,100%,100%,> 100 mg/kg,100%,100%,0%,30%
